Experimental data taken from paper PMC9136617 (Acta Pharmaceutica Sinica. B, 2022).

Columns and labels:
PPARα = target: T1, PPARα (Homo sapiens, UniProt Q07869); test: SPR; format: binding
T1 sequence (Q07869 1-468): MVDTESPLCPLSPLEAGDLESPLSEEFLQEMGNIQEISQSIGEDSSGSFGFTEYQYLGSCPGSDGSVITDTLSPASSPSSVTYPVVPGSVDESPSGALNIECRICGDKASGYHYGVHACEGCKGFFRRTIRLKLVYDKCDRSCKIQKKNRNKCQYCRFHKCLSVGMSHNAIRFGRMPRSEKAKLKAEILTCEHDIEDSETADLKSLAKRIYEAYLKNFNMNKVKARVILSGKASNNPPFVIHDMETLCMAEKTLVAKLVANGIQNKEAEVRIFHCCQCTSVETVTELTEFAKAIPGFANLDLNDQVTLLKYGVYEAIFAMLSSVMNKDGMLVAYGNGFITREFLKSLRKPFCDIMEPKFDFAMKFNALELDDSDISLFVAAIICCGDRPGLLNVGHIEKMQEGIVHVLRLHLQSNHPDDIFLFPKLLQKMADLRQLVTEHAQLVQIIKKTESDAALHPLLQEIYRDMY

CYP2E1 = CYP2E1 (Homo sapiens, UniProt P05181); test: incubation with recombinant human CYP2E1, metabolites by LC–MS/MS; format: biochemical
Sequence of CYP2E1 (P05181 whole entry): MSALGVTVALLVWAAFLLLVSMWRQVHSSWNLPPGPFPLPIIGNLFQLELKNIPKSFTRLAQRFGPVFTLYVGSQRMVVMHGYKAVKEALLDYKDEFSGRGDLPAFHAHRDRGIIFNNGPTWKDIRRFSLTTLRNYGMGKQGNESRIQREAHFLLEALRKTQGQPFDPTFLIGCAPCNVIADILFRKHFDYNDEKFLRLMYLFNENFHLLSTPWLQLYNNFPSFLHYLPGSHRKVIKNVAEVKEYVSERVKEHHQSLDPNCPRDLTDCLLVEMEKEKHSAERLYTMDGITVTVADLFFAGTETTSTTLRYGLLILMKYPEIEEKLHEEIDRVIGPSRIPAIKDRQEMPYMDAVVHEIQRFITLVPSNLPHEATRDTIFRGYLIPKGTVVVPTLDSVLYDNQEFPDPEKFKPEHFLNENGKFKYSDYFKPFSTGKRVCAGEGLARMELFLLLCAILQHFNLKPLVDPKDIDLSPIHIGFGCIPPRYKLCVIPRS

SMILES: CCCCC/C=C\C/C=C\C/C=C\C/C=C\CCCC(=O)O [AA, arachidonic acid]
- Kd (PPARα): 16.1 µM
- incubation with recombinant human CYP2E1, metabolites by LC-MS/MS (CYP2E1): All the compounds were metabolized by recombinant CYP2E1 and their metabolites identified by LC–MS/MS

SMILES: CC/C=C\C/C=C\C/C=C\C/C=C\C/C=C\C/C=C\CCC(=O)O [DHA, docosahexaenoic acid]
- Kd (PPARα): 14.3 µM
- incubation with recombinant human CYP2E1, metabolites by LC-MS/MS (CYP2E1): All the compounds were metabolized by recombinant CYP2E1 and their metabolites identified by LC–MS/MS

SMILES: CCCCC/C=C\C/C=C\CCCCCCCC(=O)O [LCA, 9,12-linoleic acid]
- Kd (PPARα): 23.8 µM
- incubation with recombinant human CYP2E1, metabolites by LC-MS/MS (CYP2E1): metabolic sites on LCA by recombinant CYP2E1 protein were at C-6 to C-10, C-16, and C-17
